Here are results for 89 compounds from a melting point compilation (Tetko et al.; mined from patent text by program, amines drawn as free bases though some values may be those of a salt).

As to `CCN1C(=O)C(C)(C)C(=O)N(C)c2cc(OCCCn3c(-c4ccccc4)cc4ccccc43)ccc21`, the melting point fell in the range of 140 to 142 °C.

`O=C1c2cc3nnn(Cc4cnccn4)c(=O)c3cc2OC2CCCN12` (centres undefined): the melting point was in the range of 229 to 231 °C. Then `CCCCN(CC)c1nc(C)[nH]c2c(-c3ccc(Cl)cc3Cl)nc(C)c1-2`, with 94 to 95 °C; and `Cc1c(C)c2c(c(C)c1O)CC[C@](C)(C(=O)N[C@H]1CCOC1=O)O2`, with 195 to 196 °C; and `O=C1c2cccc(O)c2C(=O)c2ccsc21`, with 199 to 200 °C. With `Cc1cc(=O)n2nc(C)n(N)c2n1` the figure was 287 to 289 °C. Turning to `OC(COc1ccc(-c2ccc(I)cc2)cc1)CN1CCCC1` (centres undefined), the melting point lay within 123 to 124 °C.

`Cc1ccc(-c2cncnc2O)cc1`: the melting point fell in the range of 189 to 192 °C. Then `O=C(O)Cn1c(=O)c(=O)[nH]c2ccccc21`, with > 300 °C. For `CC(C#N)(COc1ccccc1C(F)(F)F)NC(=O)c1ccc(C(=O)c2ccccc2)cc1` (centres undefined), the melting point is 121 to 123 °C. `Cc1c(Br)c2c(c(C)c1NC(=O)CC(C)(C)C)C(c1ccc(C(C)C)cc1)CS2` (centres undefined): the melting point lay within 207 to 208 °C. With `COC(=O)C1=C(C)NC(C)=C(C(=O)OCCOC(=O)c2ccc(NC(C)=O)cc2)C1c1cccc([N+](=O)[O-])c1` (centres undefined) the figure was 190 to 193 °C; with `CC(C)c1ccc2c(c1)c(-c1ccccc1Cl)c(C(=O)O)c(=O)n2C`, 184 to 185 °C; with `CCNc1nc(C)c(-c2ccnc(Nc3cccc(S(=O)(=O)NCCO)c3)n2)s1`, 124 to 125 °C. Then `CSc1c(OCC(=O)O)ccc2c3ccccc3n(Cc3ccccc3)c12`, with 188 to 189 °C. `BrC(Br)(Br)c1nnnn1-c1ccccc1` yielded a melting point of 141 to 142 °C. Turning to `COc1ccc2c(c1)[C@@H](Oc1ccc3c(c1)CCC(=O)N3)[C@H](N1CCC[C@@H](N)C1)C2`, the melting point was determined as 146 °C. With `O=C(O)c1cc(Cl)cs1` the figure was 138 °C; with `Cn1nc(-c2nc(C=O)c(Cl)cc2F)c(Cl)c1OC(F)F`, 120 to 121 °C; with `CCCCc1oc2ccccc2c1C(O)c1ccc(-c2cc(Br)c(O)c(Br)c2)cc1` (centres undefined), 60 to 62 °C. With `CC1CCN(c2nc(-c3ncccn3)cc(Cl)c2-c2c(F)cccc2Cl)CC1` the figure was 129 °C; with `O=c1c(Cl)c(C(F)(F)F)nc(Nc2cc(C(F)(F)F)ccc2C(F)(F)F)n1C1CCCCC1`, 181 to 183 °C; with `CCCCCCCCCCCCCCN(C)c1cc(OCC)c(N)cc1C(=O)O`, 80 to 81 °C.

Take `O=C1NCCN1CCN1CCN([C@@H]2C[C@@H](c3ccc(F)cc3)c3ccccc32)CC1`: the melting point was 94 to 97 °C. With `COc1cccc(C(=O)N(C(=O)OCI)N(C(=O)c2cc(C)cc(C)c2)C(C)(C)C)c1C` the figure was 70 to 72 °C; with `CCCc1[nH]c2cc(C(=O)OC)ccc2c1C(=O)C1CCC1`, 159 to 160 °C; with `CC(CCC(=O)O)c1ccc(OCc2ccccc2C(=O)O)cc1` (centres undefined), 104 to 106 °C.

As to `C=Cn1cc(C(=O)O)c(=O)c2ccc(Cl)cc21`, the melting point was 269 °C.

Compound `CC1(C)C(C=C(Cl)Cl)C1C(=O)OC(c1cccc(Oc2ccc(F)cc2)n1)C(F)(F)F` (centres undefined) showed a melting point of 69 to 72 °C.

`NCc1cccc(O)c1`: the melting point was 79 to 81 °C. Then `COc1ccccc1N1CCN(CC(O)COc2ccccc2C(=O)O)CC1` (centres undefined), with 198 to 202 °C; and `CC(C)[C@H](NC(=O)[C@@H]1CCCN1C(=O)[C@@H](NC(=O)Cn1ccc(=O)n(CC(=O)O)c1=O)C(C)C)C(=O)c1nc2ccccc2o1`, with 135 to 140 °C.

`CNCCCCn1c(-c2ccc(Br)cc2)csc1=Nc1ccccc1` displayed a melting point of 56 to 57 °C.

The compound `CC(C)c1nc(Cl)nc(-c2ccc(F)cc2)c1Br` registered a melting point of 99 to 101 °C. Then `O=C1SC(=O)C(F)=C1F`, with 52 to 56 °C; and `COc1ccc(-c2c(Cl)c(Cn3cncn3)nc3sc4c(c23)CCSC4)cc1`, with 198 to 200 °C; and `CCNC(=O)OCCCCCCCCC1Cc2c(c(OC)c(OC)c(OC)c2OC)C1`, with 85 to 86 °C. Then `C=C(C(=C)c1cc(C)sc1C)c1cc(C)sc1C`, with 43 to 44 °C. With `O=C1NCCc2ccc(OCCCCN3CCN(c4cccc5c4CCC5)CC3)nc2N1` the figure was 70 to 72 °C; with `CCOC(=O)C1Cc2c([nH]c3ccccc23)CN1C(=S)SCc1ccc(Cl)cc1` (centres undefined), 195 to 197 °C. Take `COc1cc(OC)c(-c2c(C)noc2C)cc1C=CC(=O)c1ccc(C(=O)O)cc1`: the melting point was > 260 °C.

For the compound `COC[C@H]1CN(c2ccc(CCCC(=O)C3CCCCC3)cc2)C(=O)O1`, the melting point was determined as 86 °C. `CCCCCCCCCCOc1ccc(Cc2cnc(N)nc2N)cc1OC`: the melting point was 169 °C. Then `CC(=O)NCCNC(=O)c1ccccn1`, with 96 to 99 °C; and `CC(C)c1csc(/C=C/c2cc([N+](=O)[O-])ccc2Cl)n1`, with 86 to 89 °C. With `CCc1cc(OCc2ccc(C(=O)NS(=O)(=O)c3ccccc3C)cc2)c2c(n1)CCCC2` the figure was 266 to 268 °C; with `CN(C)CC1CCc2cc(NC(=O)c3ccc(-c4ccc(Cl)c(Cl)c4)cc3)ccc2C1` (centres undefined), 143 to 145 °C. With `COC(=O)CCC(NC(=O)Cc1cc(C)c(C(=O)c2ccc(Cl)cc2)n1C)C(=O)OC` (centres undefined) the figure was 129 to 130 °C; with `Cc1cc(C)cc(CC(C)(C)NCC(O)c2cc(OCc3ccccc3)cc3c2OCC(=O)N3)c1` (centres undefined), 220 to 222 °C. `Cn1c(CO)ccc1S(=O)(=O)N1CCC(CCO)(Sc2cc(C(C)(C)C)c(O)c(C(C)(C)C)c2)CC1` yielded a melting point of 126 to 127 °C. With `C#CCN1C(=O)C(CC#N)C(CC)(CC)N=C1c1ccccc1` (centres undefined) the figure was 178 to 180 °C; with `CC1(C)c2cc(C#N)ccc2OC1OC(=O)CCl` (centres undefined), 138 °C; with `O=[N+]([O-])N=C1NCCCN1CC1CCOC1` (centres undefined), 87.5 to 90.8 °C.

For `Cc1cccc(Nc2ccccc2C(=O)OCc2ccccn2)c1C`, the melting point was 63 to 64 °C. Then `CON(C)C(=O)C(C)NC(=O)OC(C)(C)C` (centres undefined), with 150 to 151 °C; and `CCOC(=O)CCC(NC(=O)c1ccc(NC2CCc3cc4nc(C)n(COC(=O)C(C)(C)C)c(=O)c4cc32)cc1)C(=O)OCC` (mixture of isomers), with 156 °C. Then `O=c1ccc(-c2ccnnc2)c[nH]1`, with > 250 °C; and `COc1cc(N2CCN(CCC3CN(C)C(=O)O3)CC2)cc(OC)c1OC` (centres undefined), with 86 to 88 °C.

In turn, `c1ccc(-c2cc3nc(N4CCOCC4)c4ccccc4c3nn2)cc1` gave a melting point of 214 to 216 °C. Then `Cc1ccc(S(=O)(=O)OCC2Cc3cccc(-c4cccc(Cl)c4)c3O2)cc1` (centres undefined), with 101 to 103 °C; and `O=[N+]([O-])c1ccc(NCCC23CCCN2CCC3)c2ccccc12`, with 90 to 91 °C. With `O=C(Nc1cn2cc(Cl)ccc2n1)c1ccc(-n2cccn2)cc1` the figure was 287 to 289 °C. Then `CN1CC(OC(=O)c2ccccc2)N(N2CC=C(C(C)(C)C)O2)C1=O` (centres undefined), with 165 to 166 °C; and `COC(=O)c1cc(Oc2ccc([N+](=O)[O-])cc2)ccc1OC`, with 115 to 118 °C; and `COc1ccc(P(=O)(c2ccccc2)c2ccccc2)c(I)c1OC`, with 178 to 180 °C.

Consider `CCCCC(=O)Nc1ccn(C2OC(CO)C(O)C2O)c(=O)n1` (centres undefined), for which the melting point fell in the range of 132 to 135 °C.

`COc1cc(OCC(=O)O)c(C)cc1SCc1ccc(OCc2ccc(C(F)(F)F)cc2)cc1` gave a melting point of 145 °C. `FC(F)(F)c1cc(Cl)c2cc(Cl)cc(Cl)c2n1` displayed a melting point of 74 to 76 °C. In the case of `CCC1CC(=O)N(Cc2ccc(NC(C)=O)cc2)N=C1c1ccc(OC)c(OC2CCCC2)c1` (centres undefined), the melting point came to 162 °C. With `COc1cccc(CCNC(=O)Cc2cccs2)c1`, the melting point is 50 °C. Then `Cn1c(CC#N)ccc1C(=O)Cl`, with 78 to 80 °C; and `CCCCCCCCCC(=O)Nc1cc(N)cc(NC(=O)CCCCCCCCC)c1`, with 152 to 154 °C; and `N#Cc1cnc2c(c1Nc1ccc(Cl)cc1Br)C=C1N=CN=C1C2`, with 244 to 246 °C. Then `CC(C)c1nn(-c2ccc(C(F)(F)F)cn2)cc1CCCO`, with 87 to 88 °C. With `CC(C)(C)C1(O)CCN(CC23CC(c4ccc(Cl)cc42)c2ccc(Cl)cc23)CC1` the figure was 194 to 196 °C; with `CNC(=C[N+](=O)[O-])NCC(O)COc1cccc(CN2CCCCC2)c1` (centres undefined), 45 to 50 °C; with `COc1cc(/C=C/c2cc(/C=C/c3ccc4[nH]ccc4c3)n[nH]2)ccc1OCc1ccccn1`, 96 to 101 °C. In turn, `Cn1cc(-c2ccc(Cl)c(C(F)(F)F)c2)c(=O)c(-c2cccs2)c1` yielded a melting point of 166 to 168 °C. With `CCCn1cc(Cc2ccc(C(=O)O)cc2OC)c2cc(CCCC(=O)N(C)C)ccc21` the figure was 117 to 118 °C; with `C=CCCC(C#N)(C#N)Cc1ccc(OC(F)(F)C(F)F)cc1`, 60.5 °C; with `CC(C)Oc1nc2cc(-n3ccc(=O)cc3)c([N+](=O)[O-])cc2nc1OC(C)C`, 217 to 219 °C. With `CC1(C)CC(OC(=O)NNC(=O)OC2CC(C)(C)N(OC3CCCCC3)C(C)(C)C2)CC(C)(C)N1OC1CCCCC1` the figure was 150 to 152 °C. Then `CCCCc1n[nH]c(C(=O)OC)c1Cc1ccc(-c2ccccc2-c2nc(=O)s[nH]2)cc1`, with 171 to 172 °C; and `CCOc1cc(C2(C)CNC(=O)O2)ccc1OC` (centres undefined), with 85 °C; and `COC(=O)c1sc(OC)c(Cl)c1O`, with 109 to 111 °C. For `O=C1CC(=O)[C@H](CC2CCCCC2)N1`, the melting point lay within 165 to 167 °C. Then `O=C(O)Cc1cc(=O)oc2cc(O)ccc12`, with 210 °C; and `O=S(=O)(Nc1cccnc1Cl)C(F)(F)F`, with 120 to 122 °C. With `O=S(CCl)c1ccc(-n2cnnn2)cc1` (centres undefined) the figure was 147 to 149 °C.

By melting point is commonly meant the temperature of the solid-liquid transition.
